Measurements as given in patent US20260166128A1, “HUMAN AMYLIN ANALOG, AND DERIVATIVE THEREOF AND USE THEREOF” (priority 2022, published 2026).
Entries after “also recorded” stand apart in the source; their conditions may differ. Read-outs that look alike come from different tables or passages of the source. Bridge positions count the residues as written; N and C are the ends. Square brackets hold non-standard residues; d marks the D form. Primed or numbered codes have the meaning given here. Peptide text beside a SMILES is read from it. * marks the point of attachment. C20 diacid = O=C(O)CCCCCCCCCCCCCCCCCCC(=O)*; Hyp = O=C(O)[C@@H]1C[C@@H](O)CN1; Trx′ = not defined here; AEEA = NCCOCCOCC(=O)O

Key:
human amylin receptor = biological target: T1, human amylin receptor (Homo sapiens, UniProt O60896+P30988); assay: Luciferase assay of amylin derivatives in amylin receptor/CRE-luc CHO cell line; format: cell-based; conditions: EC50, CHO-K1/Ga15/AMY3 CRE-luc cells, 24 hours incubation, F12 medium containing 10% FBS
T1 construct: host or cells: CHO-K1/Ga15/AMY3 cells, further stably transfected with a CRE-luciferase plasmid
T1 sequence (P30988 25-474): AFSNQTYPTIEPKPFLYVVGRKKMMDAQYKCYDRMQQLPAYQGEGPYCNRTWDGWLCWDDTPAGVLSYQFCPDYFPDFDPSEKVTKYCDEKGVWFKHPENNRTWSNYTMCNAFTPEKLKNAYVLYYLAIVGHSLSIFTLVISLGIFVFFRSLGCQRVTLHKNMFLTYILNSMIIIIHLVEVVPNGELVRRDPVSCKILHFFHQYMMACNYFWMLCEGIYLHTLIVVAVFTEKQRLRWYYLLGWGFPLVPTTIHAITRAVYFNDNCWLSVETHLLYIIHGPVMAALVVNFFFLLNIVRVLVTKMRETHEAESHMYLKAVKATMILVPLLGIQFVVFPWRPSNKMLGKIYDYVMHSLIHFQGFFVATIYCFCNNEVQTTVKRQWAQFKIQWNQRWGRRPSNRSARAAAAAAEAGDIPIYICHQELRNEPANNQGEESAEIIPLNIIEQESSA
T1 sequence (O60896 24-148 partner): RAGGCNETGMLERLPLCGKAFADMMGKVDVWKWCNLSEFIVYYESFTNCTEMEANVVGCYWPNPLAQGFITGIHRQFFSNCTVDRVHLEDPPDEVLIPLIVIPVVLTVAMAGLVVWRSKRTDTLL
Method: The experiment was intended to detect the activity or efficacy of the amylin derivatives on a human amylin receptor in vitro by luciferase assay.
50 μL of growth medium (F12 medium containing 10% FBS) was added into each well of a white 96-well plate, and the stably transfected amylin/CRE-lue CHO cells were inoculated into the white 96-well plate at a density of about 20,000 cells/well for activity determination.

[1] = Study on fatty acid side chain of derivatives, weight reduction in SD rats (Example 7); format: in vivo; conditions: subcutaneous, 30 nmol/kg
Text: SD rats obtained by the same method as in Example 5 were used in this experimental study. There were an experimental group E: for testing weight reduction effects of the compounds PD065 and PD187, and an experimental group F: for testing the compounds PD065, PD071, PD140, PD144, PD145, PD146 and PD147, with 5 to 8 rats in each group of the derivative test, and the rats in each group were subcutaneously administered with a derivative or a solvent by a dosage of 30 nmol/kg. The administration time of each group was recorded. After administration, the rats were put back into their cages in which food and water available for the rats were placed. Food consumption and weight changes of the rats were recorded every 24 hours by online recording or manual recording.

[2] = Freeze-thaw stability of derivatives (freeze-thaw yield by liquid chromatography); format: physicochemical; conditions: for Dissolution property: appearance after dissolution at 0.2 mg/ml in 20 mM phosphate buffer solution (PB) (pH 7.0); for Freeze storage property: appearance after overnight storage at −20° C. and thawing to room temperature, 0.2 mg/ml in 20 mM PB (pH 7.0); for Freeze storage yield: concentration of polypeptide after freezing and thawing / concentration before, by liquid chromatography, −20° C. overnight
Method in brief: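 Lyophilised peptide derivative dissolved at 0.2 mg/ml in 20 mM phosphate buffer, pH 7.0, frozen overnight at −20° C, then thawed at room temperature. Peptide concentration before and after freeze-thaw measured by reversed-phase HPLC on centrifuged supernatant; yield = post-thaw/pre-thaw concentration.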

[3] = format: physicochemical; conditions: 40° C.
Method: The penicillin bottle after covering was placed in a stability test box at 40° C. Before testing, a sample was centrifuged at 10,000 rpm and 4° C. for 3 minutes, and a supernatant was taken and added into a liquid-phase sample injection bottle. The sample was detected by the liquid phase method in Example 3.

[4] = Weight loss efficacy of derivatives in SD rats (Example 5); format: in vivo, SD (Sprague Dawley) rats; conditions: subcutaneous, 30 nmol/kg
Text: SD (Sprague Dawley) rats weighing 200 g to 250 g were selected for this experimental study. Before the experiment, the rats arrived for at least 10 days to 14 days to adapt to the experimental environment. During this period, the rats were fed for two weeks in a reversed light/dark stage (meaning that the light was turned off during the day and turned on during the night) after arrival, and were fed separately in the first week of arrival to ensure accurate data and high test sensitivity, and the rats were free to obtain food and water during the whole adaptation period and experimental period. There were an experimental group [NT]5 and A6, and an experimental group B: B1, B2, B3, B4 and B5, with 5 to 8 rats in each treatment group of the derivative, and the rats in each group were subcutaneously administered with a derivative or a solvent by a dosage of 30 nmol/kg. The administration time of each group was recorded. After administration, the rats were put back into their cages in which the rats could get food and water. Food consumption and weight changes of the rats were recorded every 24 hours by online recording or manual recording. Weight and food intake changes of the SD rats in each group were as shown in FIG. 2A to FIG. 2D, Table 9 and Table 10.

[5] = Weight loss effect of dosage of derivatives in SD rats (Example 6); format: in vivo; conditions: subcutaneous
Method: SD rats obtained by the same method as in Example 5 were used in this experimental study. There were an experimental group C: C1 to C13, and an experimental group D: D1 to D7, with 5 to 8 rats in each group of the derivative test, and according to administration schemes as shown in Table 11 and Table 12, the rats in each group […] The administration time of each group was recorded. After administration, the rats were put back into their cages in which the rats could get food and water. Food consumption and weight changes of the rats were recorded every 24 hours by online recording or manual recording. Weight and cumulative food intake changes of the SD rats in each group were as shown in FIG. 3A to FIG. 3D, FIG. 4A to FIG. 4B, Table 11 and Table 12.

[6] = experimental group C, 10 nmol/kg
[7] = experimental group C, 30 nmol/kg
[8] = experimental group C, 100 nmol/kg
[9] = experimental group D, 10 nmol/kg
[10] = experimental group D, 30 nmol/kg
[11] = experimental group D, 100 nmol/kg

With `CC[C@H](C)[C@H](NC(=O)[C@@H]1CCCN1C(=O)[C@H](CCCCN)NC(=O)[C@H](CC(C)C)NC(=O)[C@H](CC(N)=O)NC(=O)[C@H](CC(N)=O)NC(=O)[C@H](CO)NC(=O)[C@H](CO)NC(=O)[C@H](Cc1c[nH]cn1)NC(=O)[C@H](CCCNC(=N)N)NC(=O)[C@H](CC(C)C)NC(=O)[C@H](Cc1ccccc1)NC(=O)[C@H](CC(=O)O)NC(=O)[C@H](C)NC(=O)[C@H](CC(C)C)NC(=O)[C@H](CCCNC(=N)N)NC(=O)[C@H](CCC(N)=O)NC(=O)[C@@H](NC(=O)[C@H](C)NC(=O)[C@@H]1CSSC[C@H](NC(=O)[C@H](CCCCN)NC(=O)COCCOCCNC(=O)COCCOCCNC(=O)CCCCCCCCCCCCCCCCCCC(=O)O)C(=O)N[C@@H](CC(N)=O)C(=O)N[C@@H]([C@@H](C)O)C(=O)N[C@@H](C)C(=O)N[C@@H]([C@@H](C)O)C(=O)N1)[C@@H](C)O)C(=O)N[C@@H](CC(C)C)C(=O)N1CCC[C@H]1C(=O)N1CCC[C@H]1C(=O)N[C@H](C(=O)N[C@@H](CC(N)=O)C(=O)N[C@H](C(=O)NCC(=O)N[C@@H](CO)C(=O)N[C@@H](CC(N)=O)C(=O)N[C@H](C(=O)N1C[C@H](O)C[C@H]1C(N)=O)[C@@H](C)O)C(C)C)[C@@H](C)O` [PD187] ({C20 diacid-AEEA-AEEA}-KCNTATCATQRLADFLRHSSNNLKPILPPTNVGSNT[Hyp]-NH2; disulfide 2-7 (inferred)) the EC50 (human amylin receptor) was 0.016 nM and the “activity (weight reduction effect) compared with PD065” value [1] was “better than that of the PD065; also recorded: better weight reduction effect”.
For `CC[C@H](C)[C@H](NC(=O)[C@@H]1CCCN1C(=O)CNC(=O)[C@H](Cc1ccccc1)NC(=O)[C@H](CC(N)=O)NC(=O)[C@H](CC(N)=O)NC(=O)[C@H](CO)NC(=O)[C@H](CO)NC(=O)[C@H](Cc1c[nH]cn1)NC(=O)[C@H](CCCNC(=N)N)NC(=O)[C@H](CC(C)C)NC(=O)[C@H](Cc1ccccc1)NC(=O)[C@H](CCC(=O)O)NC(=O)[C@H](C)NC(=O)[C@H](CC(C)C)NC(=O)[C@H](CCCNC(=N)N)NC(=O)[C@H](CCC(N)=O)NC(=O)[C@@H](NC(=O)[C@H](C)NC(=O)[C@@H]1CSSC[C@H](NC(=O)[C@H](CCCCN)NC(=O)CC[C@H](NC(=O)CCCCCCCCCCCCCCCCCCC(=O)O)C(=O)O)C(=O)N[C@@H](CC(N)=O)C(=O)N[C@@H]([C@@H](C)O)C(=O)N[C@@H](C)C(=O)N[C@@H]([C@@H](C)O)C(=O)N1)[C@@H](C)O)C(=O)N[C@@H](CC(C)C)C(=O)N1CCC[C@H]1C(=O)N1CCC[C@H]1C(=O)N[C@H](C(=O)N[C@@H](CC(N)=O)C(=O)N[C@H](C(=O)NCC(=O)N[C@@H](CO)C(=O)N[C@@H](CC(N)=O)C(=O)N[C@H](C(=O)N1CCC[C@H]1C(N)=O)[C@@H](C)O)C(C)C)[C@@H](C)O` [PD065, Cagrilintide], the EC50 (human amylin receptor) was 0.038 nM, the Dissolution property [2] was “Clear” and the Freeze storage property [2] was “Clear”. For the same compound, the Freeze storage yield [2] was 93.44%, the “Decrease percentage of protein concentration” value (shortened to “Decrease percentage”) ([3]; pH about 7.4, 0 d) was 0.00% and the Protein concentration ([3]; pH about 7.4, 0 d) was 0.81 mg/mL. The “Decrease percentage” value ([3]; pH about 7.4, 7 d) was 22.35%, the Protein concentration ([3]; pH about 7.4, 7 d) was 0.63 mg/mL and the “Decrease percentage” value ([3]; pH about 7.4, 15 d) was 46.78%. For the same compound, the Protein concentration ([3]; pH about 7.4, 15 d) was 0.43 mg/mL, the “Weight change rate at 48th hour” value ([4]; experimental group A) was −6.13 and the “Weight change rate at 48th hour” value ([4]; experimental group B) was −6.74. The “Cumulative food intake at 72nd hour” value [5, 6] was 78.31 g, the “Weight change rate at 72nd hour” value [5, 6] was 1.59% and the “Cumulative food intake at 72nd hour” value [5, 7] was 60.22 g. For the same compound, the “Weight change rate at 72nd hour” value [5, 7] was 0.46%, the “Cumulative food intake at 72nd hour” value [5, 8] was 44.41 g and the “Weight change rate at 72nd hour” value [5, 8] was −6.61%. The “Cumulative food intake at 72nd hour” value [5, 9] was 64.27 g, the “Weight change rate at 72nd hour” value [5, 9] was 5.95% and the “Cumulative food intake at 72nd hour” value [5, 10] was 48.00 g. For the same compound, the “Weight change rate at 72nd hour” value [5, 10] was 2.81%, the “Cumulative food intake at 72nd hour” value [5, 11] was 33.89 g and the “Weight change rate at 72nd hour” value [5, 11] was −3.81%.
For “PD146: KCNTATCATQRLADFLRHSSNNLKPILPPTNVGSNT-trans-Hyp-NH2; N-terminal; Trx + C20 diacid ({C20 diacid-Trx′}-KCNTATCATQRLADFLRHSSNNLKPILPPTNVGSNT-{trans‑Hyp-NH2}; disulfide 2-7 (inferred); reading uncertain; also: printed as KCNTATCATQRLADFLRHSSNNLKPILPPTNVGSNT-trans-Hyp-NH2)”, the Dissolution property [2] was “Clear”, the Freeze storage property [2] was “Clear” and the Freeze storage yield [2] was 101.09%. The “activity (weight reduction effect) compared with PD065” value [1] was “better than that of the PD065”.
